# Entries after “also recorded” stand apart in the source; their conditions may differ. Numbered stars: 1 amine (or outer) side, 2 acyl side, 3 side chain; on linkers, the order of the positions; unused ones are H or OH. Bridge positions count the residues as written; N and C are the ends. Ends that are not written are not given here. Peptide text beside a SMILES is read from it. * marks the point of attachment. Perfluorobiphenyl(4,4') = Fc1c(F)c([*:1])c(F)c(F)c1-c1c(F)c(F)c([*:2])c(F)c1F; FITC = O=C1OC2(c3ccc(O)cc3Oc3cc(O)ccc32)c2ccc(NC(=S)*)cc21; Ahx = NCCCCCC(=O)O
# T1: VPS4B, purified (His-tagged Sumo construct) (UniProt O75351 1-444)
# T1 construct: also called Vacuolar Protein Sorting 4; not shown: His tag and Sumo (pRSet B vector)
# T1 sequence (looked up): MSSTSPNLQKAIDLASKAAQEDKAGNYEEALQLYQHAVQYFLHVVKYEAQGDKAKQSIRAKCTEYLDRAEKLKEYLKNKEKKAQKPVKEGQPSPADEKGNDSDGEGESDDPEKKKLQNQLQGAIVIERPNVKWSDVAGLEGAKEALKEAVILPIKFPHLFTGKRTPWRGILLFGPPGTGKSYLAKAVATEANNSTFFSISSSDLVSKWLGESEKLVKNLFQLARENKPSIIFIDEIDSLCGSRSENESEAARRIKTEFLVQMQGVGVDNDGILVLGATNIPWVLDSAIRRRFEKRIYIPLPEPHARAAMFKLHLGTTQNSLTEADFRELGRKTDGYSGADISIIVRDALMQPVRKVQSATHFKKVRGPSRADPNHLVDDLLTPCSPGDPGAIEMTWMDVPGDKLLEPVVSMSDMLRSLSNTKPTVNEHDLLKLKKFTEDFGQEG
# B1: FITC-labeled PDpep1.3 peptide DEEIERQLKALG (peptide)
# peptide: {FITC}-DEEIERQLKALG
# notes: Synthetic peptide (LifeTein) with an N-terminal FITC moiety, used in the fluorescence polarization assays; also called DPpep1.3; FITC-Pdpep1.3
# What was measured:
# VPS4 = conditions: motif-domain interaction, reference (20); read-out: affinity of CHMP2B-VPS4 interaction; cited from earlier work
# A53T a-syn = assay: a-syn protein levels by immunoblot in HEK293 cells; format: cell-based, human; conditions: HEK293 cells expressing A53T a-syn
# Method: Infected or transfected cells were scraped from 6-well dishes and lysed with lysis buffer (50 mM Tris-HCl pH7.4, 1% Nonidet P-40, 150 mM NaCl, 1 mM EDTA, 1× protease inhibitor mixture (Sigma)) for 30 min at 4° C. The insoluble pellet was removed following a 10,000 rpm spin for 5 minutes at 4° C. Lysates were analyzed by SDS-PAGE/immunoblot using 4-20% Mini-PROTEAN Tris-glycine gels (Bio-Rad) transferred to PVDF membranes and blocked in 5% milk containing PBS-Tween-20 (0.1%) for 1 h. PVDF membranes were then incubated with specified primary antibodies followed by incubation with horseradish peroxidase-conjugated secondary antibodies (Santa Cruz Biotechnology) and detected using enhanced chemiluminescence (GE Healthcare).
# [1] = system: HEK293 cells overexpressing WT or A53T a-syn; assay: Cell Titer-Glo cell viability assay in a-syn expressing cells; format: cell-based, human; conditions: HEK293 cells overexpressing WT or A53T a-syn, with or without MG132; expressed GFP-peptide or protein
# Method: Oligonucleotides encoding the specific peptides were synthesized and individually cloned into the pLJM1 nGFP lentiviral vector. Cells were infected with individual constructs, and cell viability was assessed using Cell Titer-Glo Luminescent assay (Promega) at 72 h post infection.
# Cells were trypsinized from subconfluent cultures as described earlier, suspended in culture media, and then seeded into triplicate wells of a 96-well plate (100 μl well/1) at a density of 1.5×10^4 cells per well at standard culture conditions of 5% CO2 in air at 37° C. Cells were infected with lentivirus expressing peptide at an MOI of 5 for 72 h or transfected with plasmid for 72 h. Cell Titer-Glo reagent was added to each well (30 μL), according to the manufacturer's protocol and […].
# WT a-syn oligomers = assay: Split luciferase a-syn oligomer/aggregation assay; format: cell-based, human; conditions: cells stably expressing split luciferase a-synuclein constructs; stapled peptides
# Method: tet-off cells stably expressing split luciferase a-syn constructs were trypsinized from subconfluent culture and seeded in a 96-well plate at a density of 15,000 cells per well. Cells were incubated overnight at 37° C. in 5% CO2. […] After 6 h of incubation, 20 μL of cell medium was transferred to a black flat-bottomed 96-well plate. 50 μL of Working solution (Pierce Gaussia-Firefly Luciferase Dual Assay Kit, Thermo Scientific #16181) was added into each well containing cell medium. Immediately after adding the reagent, samples were read using a luminometer with a 480 nm filter.
# [2] = system: HEK293 cells overexpressing WT or A53T a-syn; assay: Cell Titer-Glo cell viability assay in a-syn expressing cells; format: cell-based, human
# CHMP2B 1-199 truncation [3] = target: T2, CHMP2B 1-199 truncation (human, UniProt Q9UQN3 1-199); assay: fluorescence polarization
# T2 construct: Tags and purification of the truncated protein are not described
# T2 sequence (Q9UQN3 1-199 limits assumed): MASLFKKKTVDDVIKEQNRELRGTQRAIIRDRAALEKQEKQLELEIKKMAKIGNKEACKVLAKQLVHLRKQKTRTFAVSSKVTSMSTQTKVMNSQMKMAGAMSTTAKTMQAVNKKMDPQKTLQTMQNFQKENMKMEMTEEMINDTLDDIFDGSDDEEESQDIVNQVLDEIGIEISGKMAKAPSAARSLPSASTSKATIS
# [4] = target: T3, Charged multivesicular body protein 2B (CHMP2B), full length, purified (human, UniProt Q9UQN3 2-213); assay: fluorescence polarization
# T3 construct: mature; not shown: tag from the pET-DEST42 vector used for Ni-NTA purification
# T3 sequence (Q9UQN3 2-213): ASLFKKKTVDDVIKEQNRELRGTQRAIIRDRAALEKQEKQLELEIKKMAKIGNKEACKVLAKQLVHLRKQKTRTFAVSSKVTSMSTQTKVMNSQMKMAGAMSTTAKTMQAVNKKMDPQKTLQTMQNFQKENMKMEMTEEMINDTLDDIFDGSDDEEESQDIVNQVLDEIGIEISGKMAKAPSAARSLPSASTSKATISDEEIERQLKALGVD
# [5] = target: T1, VPS4B, purified (His-tagged Sumo …); assay: fluorescence polarization, FITC-peptide against VPS4B
# [6] = target: T3, Charged multivesicular body protein 2B …; assay: fluorescence polarization, 50 nM FITC-peptide, CHMP2B titrated
# [7] = target: T1, VPS4B, purified (His-tagged Sumo …); assay: fluorescence polarization (FIG. 8)
# CHMP2B 1-199 truncation [8] = target: T2, CHMP2B 1-199 truncation; assay: fluorescence polarization, stapled peptide against truncated CHMP2B (1-199)
# [9] = target: T3, Charged multivesicular body protein 2B …; assay: fluorescence polarization, stapled peptide against full length CHMP2B
# [10] = target: T3, Charged multivesicular body protein 2B …; assay: fluorescence polarization, FITC-labelled a-syn peptide, CHMP2B titrated
molecule,measurement,setting,value
"full-length CHMP2B: Charged Multivesicular Body Protein 2B, member of ESCRT-III, uniprot ID Q9UQN3",Kd,VPS4,178 µM
same,a-syn protein levels by immunoblot,A53T a-syn,reduced a-syn protein levels; also recorded: reduces a-syn levels
same,cell viability / cytoprotective effect,[1],rescues a-syn cytotoxicity
DIEICFQLKALC (cysteine staple) [stapled macrocycle; cysteines introduced at the locations to be stapled],a-syn aggregation measured by luciferase activity,WT a-syn oligomers,significant reduction in a-syn aggregation
same,"A53T cell viability, stapled peptides incubated",[2],increase in A53T cell viability
CHMP2B (1-178): shorter CHMP2B truncation (1-178) implicated in FTD,cell viability / cytoprotective effect,[1],increased toxicity
"CHMP2B (1-199): truncated CHMP2B removing the MIM, residues 1-199",a-syn protein levels by immunoblot,A53T a-syn,reduction in a-syn levels
same,cell viability / cytoprotective effect,[1],rescues toxicity
DEEYCRQWKALC (cysteine staple) [stapled macrocycle; cysteines introduced at the locations to be stapled],a-syn aggregation measured by luciferase activity,WT a-syn oligomers,significant reduction in a-syn aggregation
same,"A53T cell viability, stapled peptides incubated",[2],increase in A53T cell viability
"CC[C@H](C)[C@H](NC(=O)[C@H](CCC(=O)O)NC(=O)[C@H](CCC(=O)O)NC(=O)[C@H](CC(=O)O)NC(=O)CCCCCNC(=S)Nc1ccc2c(c1)C(=O)OC21c2ccc(O)cc2Oc2cc(O)ccc21)C(=O)N[C@H]1CSc2c(F)c(F)c(c(F)c2F)-c2c(F)c(F)c(c(F)c2F)SC[C@@H](C(N)=O)NC(=O)[C@H](CC(C)C)NC(=O)[C@H](C)NC(=O)[C@H](CC(=O)O)NC(=O)[C@H](CC(C)C)NC(=O)[C@H](CCC(N)=O)NC(=O)[C@H](CCCNC(=N)N)NC1=O ({FITC-Ahx}-DEEICRQLDALC-NH2; linker 5-12 via Perfluorobiphenyl(4,4'); N-terminus and C-terminus assumed)",a-syn aggregation measured by luciferase activity,WT a-syn oligomers,significant reduction in a-syn aggregation
same,"A53T cell viability, stapled peptides incubated",[2],increase in A53T cell viability
"{FITC}-DIEICFQLKALC (linker 5-12 via hexafluorobenzene (inferred), also called optimized macrocycle) [Stapled peptide DIEICFQLKALC]",binding result,CHMP2B 1-199 truncation [3],binds
same,binding result,[4],binds
B1,Kd,[5],~200 µM
same,Kd,[6],1800 nM
same,Kd,[7],> 100 µM
"{FITC}-DEEICRQLDALC (linker 5-12 via hexafluorobenzene (inferred), also called optimized macrocycle) [Stapled Pdpep1.4 variant DEEICRQLDALC]",Kd,CHMP2B 1-199 truncation [8],60 nM
same,Kd,[9],600 nM
"{FITC}-NEEGAPQEGILE [FITC-labelled a-syn peptide, amino acids 103-114 (NEEGAPQEGILE)]",Kd,[10],640 nM
